Assay results as given in PubChem BioAssay (NCI).
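Results reflect a 48-hour exposure of cells in 96-well plates to compound at five concentrations. TGI is the concentration that stops growth completely.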

Assays:
Experiment in all cases: NCI tumour cell line growth inhibition, 48 h
DLD-1 colon = system: DLD-1 colon
DMS 114 small cell lung = system: DMS 114 small cell lung
LXFL 529 NSCLC = system: LXFL 529 NSCLC
M19-MEL melanoma = system: M19-MEL melanoma
SNB-78 CNS = system: SNB-78 CNS
XF 498 CNS = system: XF 498 CNS
HOP-18 NSCLC = system: HOP-18 NSCLC
P388 leukemia = system: P388 leukemia
P388/ADR leukemia = system: P388/ADR leukemia
SN12K1 renal = system: SN12K1 renal

| SMILES | TGI (DLD-1 colon) | TGI (DMS 114 small cell lung) | TGI (LXFL 529 NSCLC) | TGI (M19-MEL melanoma) | TGI (SNB-78 CNS) | TGI (XF 498 CNS) | TGI (HOP-18 NSCLC) | TGI (P388 leukemia) | TGI (P388/ADR leukemia) | TGI (SN12K1 renal) |
| --- | --- | --- | --- | --- | --- | --- | --- | --- | --- | --- |
| CCCCc1c2c(nc3c1CC/C(=C\c1ccc([N+](=O)[O-])cc1)C3=O)CCCC2 | 3.42 µM | 4.4 µM | 2.68 µM | 4.59 µM | 4.38 µM |  |  |  |  |  |
| O=C1CSC(C(N=Nc2ccc(Cl)cc2)c2nc3ccccc3[nH]2)=N1 (stereo unspecified) | > 100 µM | 58.5 µM | > 100 µM | > 100 µM |  | 45.9 µM |  |  |  |  |
| CC(C)[C@](O)(C(=O)OCC1=CCN2CC[C@@H](O)[C@@H]12)[C@H](C)O | > 375 µM | > 375 µM |  | > 256 µM | > 375 µM | > 375 µM | > 375 µM | > 375 µM | > 375 µM | > 375 µM |
| CCCCS(=O)CC(CO)NC(=O)/C=C/c1c(C)[nH]c(=O)[nH]c1=O (stereo unspecified) | 72.1 µM | 25.1 µM |  | 18.1 µM |  | 14 µM | 183 µM | 6.93 µM | 59.2 µM | 24.1 µM |
| CCN(CC)CC(=O)Nc1ccc2c(c1)C(=O)c1ccc(NC(=O)CN(CC)CC)cc1C2=O | > 100 µM | 37.4 µM | 49 µM | > 100 µM | > 100 µM |  |  |  |  |  |
| COc1cc2cc3c4c(cc(OC)c(OC)c4c2cc1OC)CCN3C(=O)CCC(=O)O | > 100 µM | > 100 µM | > 100 µM |  | > 100 µM |  |  |  |  |  |
| O=C1CCCN1CCCN=c1cc2n(-c3ccc(Cl)cc3)c3ccccc3nc-2cc1Nc1ccc(Cl)cc1 | 28.3 µM | 20.2 µM |  | 5.45 µM | 75.2 µM | 35.3 µM | > 92.4 µM | 13 µM | 15.4 µM | 23.3 µM |
| COc1ccc(-c2nc3c(nc2-c2ccc(OC)cc2)N(C)S(=O)(=O)N=C3N)cc1 | > 100 µM | 72.7 µM | > 100 µM | > 100 µM |  |  | > 100 µM |  |  |  |
| COC(=O)C1C(O)C(C)C(O)OC1C(C)C(O)C(C)/C=C\C=C(/C)C(=O)Nc1c(C)c(OC(C)=O)c2c(c1O)C(=O)C(C)=C1OCOC(/C(C)=C/C(C)=O)=C12 (stereo unspecified) | 19.4 µM | 27.5 µM |  | 26 µM | 24.9 µM | 24.6 µM | 28.7 µM | 12.4 µM | 39.4 µM | 25.6 µM |
| CN=C(NC)N(C)c1nc(=[N+](C)C)ss1 |  |  | > 100 µM |  | > 100 µM |  |  |  |  |  |
